The values below come from patent US20240317827A1, “LINEAR PEPTIDES INHIBITING CK2-MEDIATED PHOSPHORYLATION AND COMPOSITIONS COMPRISING SAME” (CENTRO DE INGENIERÍA GENÉTICA Y BIOTECNOLOGÍA, priority 2021, published 2024).

Like-named read-outs stand apart in the source and are kept apart here. Where a SMILES comes first, the peptide text is derived from it. Bridges are numbered along the chain shown (N, C = ends). [ ]: non-standard residue; d: D form. βAla = NCCC(=O)O

Assay [1] relates to NCI-H125 cell line (non-small cell lung cancer). The assay is described as follows: cell proliferation assay, NCI-H125 line. Format: cell-based. The procedure: The evaluation of the antiproliferative activity of polypeptides F11P13-F11P21 (SEQ ID NO: 12-SEQ ID NO: 20) was performed on the NCI-H125 cell line. […] The antiproliferative effect of the CIGB-300 peptide has been widely characterized in this line (Cirigliano S. M., et al., 2017, Cancer Cell International, 17, 42), therefore, it was selected as a positive control. Tat peptide was used as a negative control. The polypeptides were evaluated at the concentrations of 25, 50, 100 and 200 μM. The cell proliferation assay was performed by a previously described procedure (Perera Y., et al., 2012, J. Pept. Sci, 18 (4):215-23).
The 24 polypeptides identified as SEQ ID NO: 21-SEQ ID NO: 44 maintained the ability to inhibit the phosphorylation of the E7 protein of HPV-16, mediated by CK2, since phosphorylation inhibition values between 60-85% were obtained. […] Evaluation of the antiproliferative activity of synthetic polypeptides generated by positional scanning of Trp (SEQ ID NO: 21-SEQ ID NO: 44) was performed on the NCI-H125 cell line. The test was performed by the procedure previously described. (Perera Y., et al., 2012, J. Pept. Sci, 18 (4): 215-23). Precursor polypeptides (F11P19, F11P20, F11P21) and peptide CIGB-300 were included as positive controls. The polypeptides were evaluated at the concentrations of 12.5; 25; fifty; 100 and 200 μM.
(§1) The evaluation of the antiproliferative activity of synthetic polypeptides A15P35, A15P36 and A15P37 (SEQ ID NO: 46-SEQ ID NO: 48) was performed on the NCI-H125, AsPC-1, PanC-1 (pancreatic carcinoma) and OCI-AML3 (acute myeloid leukemia-3) cell lines. The test was carried out according to the procedure previously described (Perera Y, et al., 2012, J. Pept. Sci, 18 (4):215-23). […] The polypeptides A15P35, A15P36 and A15P37 were able to produce a dose-dependent effect on the proliferation of NCI-H125 cells.
(§2) Antiproliferative assays were performed on the NCI-H125, Hep2C (laryngeal carcinoma) cell lines, and on two bladder cancer lines (MGH-U3 and MGH-U4). The test was carried out according to the procedure previously described (Perera Y., et al, 2012, Pept. Sci, 18 (4):215-23).

Assay [2] has as its system AsPC-1 cell line (pancreatic adenocarcinoma). Format: cell-based. The procedure:
The cell proliferation assay was performed following the procedure previously described (Perera Y, et al., 2012, J. Pept. Sci, 18 (4):215-23).
as §1

Assay [3] deals with OCI-AML3 (acute myeloid leukemia-3) cell line. As to the kind of experiment: cell proliferation assay, OCI-AML3 line. Format: cell-based. The note with it: Table 7. The procedure: as §1
Assay [4] relates to PanC-1 (pancreatic carcinoma) cell line. As to the kind of experiment: cell proliferation assay, PanC-1 line. As to conditions: Table 7. Format: cell-based. The procedure:
as §1

Assay [5] relates to Hep2C (laryngeal carcinoma) cell line. The assay is described as follows: cell proliferation assay, Hep2C line. Format: cell-based. The note with it: Table 9. On the procedure: as §2
The subject of assay [6] is MGH-U3 bladder cancer line. As to the kind of experiment: cell proliferation assay, MGH-U3 line. Format: cell-based, human. As to conditions: Table 9. On the procedure:
as §2

In assay [7] the target is T1, CK2-mediated phosphorylation of the HPV-16 E7 oncoprotein (Human papillomavirus type 16, UniProt P03129).
T1 construct: Glutathione S-Transferase (GST); made in house; host or cells: Escherichia coli
The assay is described as follows: in vitro phosphorylation reaction, E7 oncoprotein (GST fusion) as substrate. Format: biochemical. As to conditions: procedure of Example 2. The procedure:
The assay to measure the effect of these peptides on the CK2-mediated phosphorylation of the HPV-16 E7 oncoprotein, was based on an in vitro phosphorylation reaction, where the E7 oncoprotein of HPV-16 expressed in Escherichia coli was used as substratum. This oncoprotein was obtained as a fusion protein to Glutathione S-Transferase. The assay was performed according to the procedure previously described. (Perea S. E., et al., 2004, Cancer Res., 64: 7127-7129). The results are shown in FIG. 1, and indicate that the peptides identified as SEQ ID NO: 1-SEQ ID NO: 9 are capable of inhibiting CK2-mediated phosphorylation of the E7 protein of HPV-16.

Assay [8] deals with MGH-U4 bladder cancer line. The assay is described as follows: cell proliferation assay, MGH-U4 line. Format: cell-based. As to conditions: Table 9. The procedure: as §2
Assay [9] deals with cell proliferation in vitro. As to conditions: literature value; read-out: mean maximum inhibitory concentration (IC50), cell proliferation in vitro; cited from earlier work.
Assay [10] addresses phosphoacceptor site of the CK2 enzyme in the E7 protein of HPV-16 (BIOT peptide, […]) (Human papillomavirus type 16, UniProt P03129). The note with it: peptide coupled to resin; BIOT peptide 120 μg/mL; streptavidin-alkaline phosphatase, BCIP.
Procedure: For the identification of bioactive linear peptides that interact with the phosphoacceptor site of the CK2 enzyme, a combinatorial library of synthetic linear peptides named BCP-1 by type of “one-bead-one-compound” was screened, containing more than 16 million of different peptide sequences. […] Screening was performed with a biotinylated synthetic peptide, called BIOT, which contains the phosphoacceptor site of the CK2 enzyme in the E7 substrate of HPV-16 ([sequence], identified as SEQ ID NO: 63). The streptavidin-alkaline phosphatase conjugate was used as recognition molecule, and p-toluidine salt of 5-bromo-4-chloro-3-indolyl-phosphate (BCIP) was used as substrate for development. The blue color facilitates the visual differentiation of the beads containing bioactive sequences recognized by the BIOT peptide, compared to the bright light yellow color of the TentaGel resin at the BCP-1 library.
The BCP-1 library was placed in a polypropylene reactor with a vacuum filtration system and mechanical agitation. It was washed with purified water and saline phosphate buffer solution (PBS) pH 7.4; and blocked with 1% bovine serum albumin (BSA) in PBS pH 7.4 for one hour. Solvents and reagents were removed by vacuum filtration. The library was incubated with 80 mL of a BIOT peptide solution at 150 g/mL in 1% BSA in PBS pH 7.4, for 16 h at 4° C. […]
Assay [11] has as its target T2, E7 oncoprotein of HPV-16 expressed in Escherichia coli as a fusion protein to Glutathione S-Transferase (Human Papillomavirus (HPV)-16, UniProt P03129 1-98).
T2 sequence: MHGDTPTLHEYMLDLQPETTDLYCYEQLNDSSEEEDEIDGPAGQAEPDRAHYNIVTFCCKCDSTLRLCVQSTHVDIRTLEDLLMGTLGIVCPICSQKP
The assay is described as follows: cell-based or functional assay.

Where [12] appears, read: Table 7, read-out: IC50 (μM) NCI-H125.

Consider `N=C(N)NCCC[C@H](NC(=O)CN)C(=O)N[C@@H](CCCCN)C(=O)N[C@@H](CCCCN)C(=O)N[C@@H](CCCNC(=N)N)C(=O)N[C@@H](CCCNC(=N)N)C(=O)N[C@@H](CCC(N)=O)C(=O)N[C@@H](CCCNC(=N)N)C(=O)N[C@@H](CCCNC(=N)N)C(=O)N[C@@H](CCCNC(=N)N)C(=O)N1CCC[C@H]1C(=O)N1CCC[C@H]1C(=O)N[C@@H](CCC(N)=O)C(=O)NCCC(=O)N[C@@H](Cc1c[nH]c2ccccc12)C(=O)N[C@@H](CCCCN)C(=O)N[C@@H](CCCNC(=N)N)C(=O)N[C@@H](CO)C(=O)N[C@@H](CCCNC(=N)N)C(=O)N[C@@H](Cc1ccc(O)cc1)C(=O)N[C@@H](Cc1c[nH]c2ccccc12)C(=O)N1CCC[C@H]1C(N)=O` [A15P35, GRKKRRQRRRPPQ-βA-WKRSRYWP] (H-GRKKRRQRRRPPQ[βAla]WKRSRYWP-NH2; N-terminus and C-terminus assumed), for which the IC50 in assay [1] (setting [12]) worked out at 106 µM; in assay [2] (Table 7, read-out: IC50 (μM) AsPC-1) it was 127 µM; in assay [3] it was 130 µM; in assay [4], 145 µM.
Turning to `CSCC[C@@H]1NC(=O)[C@H](Cc2c[nH]c3ccccc23)NC(=O)[C@@H](NC(=O)CCNC(=O)[C@H](CCC(N)=O)NC(=O)[C@@H]2CCCN2C(=O)[C@@H]2CCCN2C(=O)[C@H](CCCNC(=N)N)NC(=O)[C@H](CCCNC(=N)N)NC(=O)[C@H](CCCNC(=N)N)NC(=O)[C@H](CCC(N)=O)NC(=O)[C@H](CCCNC(=N)N)NC(=O)[C@H](CCCNC(=N)N)NC(=O)[C@H](CCCCN)NC(=O)[C@H](CCCCN)NC(=O)[C@H](CCCNC(=N)N)NC(=O)CN)CSSC[C@@H](C(N)=O)NC(=O)[C@H]([C@@H](C)O)NC(=O)CNC(=O)[C@H](CC(C)C)NC(=O)[C@H](Cc2c[nH]cn2)NC(=O)[C@H](CCCNC(=N)N)NC(=O)[C@@H]2CCCN2C(=O)[C@H](CO)NC1=O` [CIGB-300, cycle (Cys15-Cys25) GRKKRRQRRRPPQ-βA-CWMSPRHLGTC, reference compound] (H-GRKKRRQRRRPPQ[βAla]CWMSPRHLGTC-NH2; disulfide 15-25; N-terminus and C-terminus assumed), the IC50 in [5] turned out to be 61 µM; in assay [1] (NCI-H125, read-out: IC50 (dose-effect curves)), 64 µM; in assay [1] (setting [12]), 64 µM; in [1] (Table 9, read-out: IC50 (μM) NCl-H125), 64 µM; in [2] (AsPC-1, read-out: IC50), 102 µM; in [6] it was 327 µM. The IC50 in assay [3] came out at 63 µM; in assay [8], 335 µM; in assay [4], 156 µM. The “percentage of inhibition of proliferation” value in assay [1] (NCI-H125, evaluated at 25, 50, 100 and 200 μM, concentration not given) was found to be 50%. In assay [7], this molecule came in with a phosphorylation inhibition of 87%.
For the molecule `O=C(O)c1ccc2c(c1)nc(Nc1cccc(Cl)c1)c1ccncc12` [CX-4945], the IC50 in assay [9] is 5.5 µM.
For the molecule EQPAFHDP [P10], the “blue color development after enzymatic assay (interaction with the CK2 phosphoacceptor site)” value in assay [10] is on record as “did not develop blue coloration”.
With VAGFFLDP [P11], the “blue color development after enzymatic assay (interaction with the CK2 phosphoacceptor site)” value in assay [10] was “did not develop blue coloration”.

B1: peptide D15P106 (RKRSWYWP) (peptide)
peptide: RKRSWYWP
For B1, in assay [11], the “inhibition of CK2-mediated phosphorylation of HPV-16 E7 (in vitro phosphorylation reaction, GST-E7 substrate)” value amounted to 82%.
